pEC50: −log10 of the molar value. Read-outs that look alike come from different tables or passages of the source. Marks after values point to notes of the source that are not given here. Where a SMILES comes first, the peptide text is derived from it. Bridges are numbered along the chain shown (N, C = ends). [ ]: non-standard residue; d: D form. Aad = N[C@@H](CCCC(=O)O)C(=O)O; Dap = NC[C@H](N)C(=O)O; Mpa = O=C(O)CCS
Legend:
V1a receptor = target: T1, V1a receptor (Homo sapiens, UniProt P37288); test: V1a Human Vasopressin GPCR Cell Based Agonist Calcium Flux Assay; settings: for EC50 / Emax: n = 2; for Emax: read-out: V1a Highest agonist effect (% of AVP); for pEC50: FIG. 2 / FIG. 3 legend, n=2, read-out: EC50 for V1a receptor
T1 construct: host or cells: CHO cells
T1 sequence (P37288 whole entry): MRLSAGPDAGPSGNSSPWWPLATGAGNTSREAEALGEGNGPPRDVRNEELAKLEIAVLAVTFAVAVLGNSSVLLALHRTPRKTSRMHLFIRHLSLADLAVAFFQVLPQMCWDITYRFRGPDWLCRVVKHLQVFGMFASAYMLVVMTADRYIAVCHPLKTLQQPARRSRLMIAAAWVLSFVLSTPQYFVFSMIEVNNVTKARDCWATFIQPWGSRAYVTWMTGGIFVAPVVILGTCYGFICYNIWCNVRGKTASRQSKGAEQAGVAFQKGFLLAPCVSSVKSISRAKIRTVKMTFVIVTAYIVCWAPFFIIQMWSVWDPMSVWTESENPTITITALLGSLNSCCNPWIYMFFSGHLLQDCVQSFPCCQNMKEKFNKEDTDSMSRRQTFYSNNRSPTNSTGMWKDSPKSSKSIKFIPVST
Description: Peptides of Formula (I) include Mpa-Tyr-Phe-Hgn-Asn-Cys-Pro-Lys(X)a-Gly-NH2 [SEQ ID NO. 24]; where (X)a is a peptide with “a” residues and each residue X is independently selected from Gly, and a D- or L-amino acid version of Ala, Lys, Orn, Glu, and Asp, where “a” is 0-10. V1a Human Vasopressin GPCR Cell Based Agonist Calcium Flux Assay were conducted at Eurofins Cerep SA (France) on a fee for service basis. Human recombinant CHO cells expressing human V1 receptors were distributed in microplates. Intracellular calcium signal was detected by fluorimetry, and the signal was acquired before and after addition of a known agonist concentration. The following agonist concentrations were tested (nM); 0.0128, 0.064, 0.32, 1.6, 8, 40, 200, and 1,000. […] All assays were performed in duplicate. Changes in fluorescence intensity reflected changes in the concentration of free cytosolic calcium. […] The half-maximal effective concentration (EC50) was determined by a non-linear regression analysis of the concentration-response curves generated with mean replicate values using Hill equation curve fitting (Cerep, I'Evescault, France).
V1a Human Vasopressin GPCR Cell Based Agonist Calcium Flux Assay were conducted using human recombinant CHO cells expressing human V1 receptor. Briefly, human recombinant CHO cells expressing human V1 receptor were distributed in microplates at 4.5×10^4 cells/well. The fluorescent probe (Fluo4 Direct, Invitrogen) mixed with probenicid in HBSS buffer (Invitrogen) complemented with 20 mM HEPES (Invitrogen) (pH 7.4) is then added into each well and equilibrated with the cells for 60 min at 37° C. then 15 min at 22° C. Thereafter, the assay plates are positioned in a microplate reader (CellLux, PerkinElmer) which is used for the addition of the test compound, reference agonist or HBSS buffer (basal control), and the measurements of changes in fluorescence intensity which varies proportionally to the free cytosolic Ca^2+ ion concentration. The following agonist concentrations were tested (nM), 0.0128, 0.064, 0.32, 1.6, 8, 40, 200, and 1,000. […] All assays were performed in duplicate. Changes in fluorescence intensity reflected changes in the concentration of free cytosolic calcium. […] Referring to FIG. 3 and Table 4, the half-maximal effective concentration (EC50) was determined by non-linear regression analysis of the concentration-response curves generated with mean replicate values using Hill equation curve fitting (Cerep, I'Evescault, France).

[1] = Therapeutic index (NOAEL/NOEL): paleness, lethargy, ataxia observation in Sprague-Dawley rats (Example 7); type: in vivo; settings: for NOAEL at 24 h: male, Sprague-Dawley; for NOAEL at 24 h / NOAEL: read-out: Highest dose with no-observed adverse effect level without lethargy (NOAEL)
Source text: As used herein, the term “therapeutic index” (TI; also referred to as therapeutic ratio) is a quantitative measure of the relative safety of a drug. […] For the purpose of the present application, lethargy is a lack of energy and/or sleepiness which is visually observed in rats as a lack of mobility, such as a lack of mobility even in the presence of human activity. For the purpose of present specification, peripheral vasoconstriction is visually observed by a paleness of the extremities (e.g., skin of hands, feet, ears, and lips). In rats, peripheral vasoconstriction is determined by a side-by-side comparison of ear paleness in treated subjects (e.g., Sprague Dawley rats, a white rat with easily visualizable changes in redness/paleness) vs. untreated control subjects. The V1a agonist (or partial agonist) with a high therapeutic index will have a better safety profile than that with a low therapeutic index by providing a wider margin of safety for dosing during the treatment of the disease. This NOAEL/NOEL ratio, being a quantitative measure of the relative safety, is a comparison of the amount of a therapeutic agent that causes the therapeutic effect (useful effect, vasoconstriction for the purpose of the present specification) to the amount that causes toxicity. A V1a agonist that causes severe vasoconstriction will affect not only the peripheral vessels, with several layer of smooth muscles, but also other vessels present in other organs (e.g., heart, lungs, kidney, brain) and this will result in observed lethargy and eventually ataxia. A partial agonist is less likely to reach such an extreme level of vasoconstriction and is believed to have a higher therapeutic index.
In this study, 8 to 10 weeks male Sprague-Dawley rats (Charles River; Wilmington, MA) under isoflurane anesthesia (n=3 or 6) were intravenously (IV) or subcutaneously (SC) injected or administered with various test articles. Prior to administration of test articles, the injection area was clipped free of fur, to allow for clear visualization of the dose site, and animal weight was measured and recorded. Animals were housed two per cage. […] Lethargy is when the animal eyes cannot fully open and is associated deep breathing and limited of movement even in the presence of human.

[2] = Table 3, CHO cells expressing human V1 receptor, read-out: Estimated V1a EC50 (nM)
[3] = S.C., at the Marked adverse effect dose
[4] = S.C., at the Mild adverse effect dose
[5] = Table 3, cells printed in μM, read-out: Estimated V1a EC50

| Structure (SMILES) | EC50 (V1a receptor; [2]) [nM] | Emax (V1a receptor; Table 3) [%] | Paleness (Duration, hrs; SD) [1, 3] | Paleness (Duration, hrs; SD) [1, 4] | Paleness (Duration, hrs; SD) ([1]; S.C., at the NOAEL dose) | Paleness (Duration, hrs; SD) ([1]; S.C., at the NOEL dose) | Highest dose with no-observed effect level or paleness (NOEL) ([1]; S.C., rat) [mg/kg] | NOAEL/NOEL (therapeutic index) ([1]; S.C., rat) | NOAEL at 24 h ([1]; in vivo, sc, S.C., rat) [mg/kg] | Marked adverse effect (Lowest dose first showed Ataxia) ([1]; rat, in vivo, sc) [mg/kg] | Mild adverse effect (Lowest dose first showed Lethargy) ([1]; rat, in vivo, sc) [mg/kg] | pEC50 (V1a receptor) | EC50 (V1a receptor; [5]) [nM] | NOAEL ([1]; in vivo, sc, S.C., rat) [mg/kg] | Ataxia (duration, hrs; SD) ([1]; rat, in vivo, sc) | Marked adverse effect (Lowest dose first showed Ataxia) ([1]; S.C., rat) [mg/kg] | Mild adverse effect (Lowest dose first showed Lethargy) ([1]; S.C., rat) [mg/kg] | Lethargy (duration, hrs; SD) ([1]; rat, in vivo, sc) | Emax (V1a receptor; Table 4) [%] |
| --- | --- | --- | --- | --- | --- | --- | --- | --- | --- | --- | --- | --- | --- | --- | --- | --- | --- | --- | --- |
| NCC(=O)NCC(=O)NCC(=O)NCC(=O)NCC(=O)NCC(=O)NCC(=O)NCCCC[C@H](NC(=O)[C@@H]1CCCN1C(=O)[C@@H]1CSSCCC(=O)N[C@@H](Cc2ccc(O)cc2)C(=O)N[C@@H](Cc2ccccc2)C(=O)N[C@@H](CCCC(N)=O)C(=O)N[C@@H](CC(N)=O)C(=O)N1)C(=O)NCC(N)=O [SEQ ID NO. 14, Mpa-Tyr-Phe-Hgn-Asn-Cys-Pro-Lys(X)a-Gly-NH2; (X)a = (Gly)7] | 30.9 | 26.1 | (>6.44)* hrs | (>6.39)* hrs | (5.86 ± 0.13) hrs | None Observed | 0.0015 | 100 | 0.15 | 1.5 | 0.5 |  |  |  |  |  |  |  |  |
| NCC(=O)NCC(=O)NCC(=O)NCC(=O)NCC(=O)NCC(=O)NCC(=O)NCC(=O)NCCCC[C@H](NC(=O)[C@@H]1CCCN1C(=O)[C@@H]1CSSCCC(=O)N[C@@H](Cc2ccc(O)cc2)C(=O)N[C@@H](Cc2ccccc2)C(=O)N[C@@H](CCCC(N)=O)C(=O)N[C@@H](CC(N)=O)C(=O)N1)C(=O)NCC(N)=O [SEQ ID NO. 15, Mpa-Tyr-Phe-Hgn-Asn-Cys-Pro-Lys(X)a-Gly-NH2; (X)a = (Gly)8] | 226 | 24.8 | (>6.19)* hrs | (>6.17)* hrs | (5.68 ± 0.06) hrs | None Observed | 0.0015 | 100 | 0.15 | 1.5 | 0.5 |  |  |  |  |  |  |  |  |
| NCC(=O)NCC(=O)NCC(=O)NCC(=O)NCC(=O)NCC(=O)NCC(=O)NCC(=O)NCC(=O)NCCCC[C@H](NC(=O)[C@@H]1CCCN1C(=O)[C@@H]1CSSCCC(=O)N[C@@H](Cc2ccc(O)cc2)C(=O)N[C@@H](Cc2ccccc2)C(=O)N[C@@H](CCCC(N)=O)C(=O)N[C@@H](CC(N)=O)C(=O)N1)C(=O)NCC(N)=O [SEQ ID NO. 16, Mpa-Tyr-Phe-Hgn-Asn-Cys-Pro-Lys(X)a-Gly-NH2; (X)a = (Gly)9] |  | 28.1 | (>6.99)* hrs | (>6.14)* hrs | (7.14 ± 0.11) hrs | None observed | 0.005 | 100 | 0.5 | 5.0 | 1.5 | 6.98 |  |  |  |  |  |  |  |
| NC[C@H](NC(=O)[C@@H]1CCCN1C(=O)[C@@H]1CSSCCC(=O)N[C@@H](Cc2ccc(O)cc2)C(=O)N[C@@H](Cc2ccccc2)C(=O)N[C@@H](CCCC(N)=O)C(=O)N[C@@H](CC(N)=O)C(=O)N1)C(=O)NCC(N)=O [SEQ ID NO. 17, Mpa-Tyr-Phe-Hgn-Asn-Cys-Pro-Dap-Gly-NH2] ([Mpa]YF[Aad](NH2)NCP[Dap]G-NH2; disulfide 1-6) |  | 3.5 | (>6.18)* hrs | (>5.92)* hrs | (6.11 ± 0.07) hrs | None observed | 0.014 | 34 |  | >9.95 | 4.78 |  | > 10000 | 0.478 | None observed |  |  |  |  |
| NCCCC[C@@H](NC(=O)[C@@H]1CCCN1C(=O)[C@@H]1CSSCCC(=O)N[C@@H](Cc2ccc(O)cc2)C(=O)N[C@@H](Cc2ccccc2)C(=O)N[C@@H](CCCC(N)=O)C(=O)N[C@@H](CC(N)=O)C(=O)N1)C(=O)NCC(N)=O [SEQ ID NO. 18, Mpa-Tyr-Phe-Hgn-Asn-Cys-Pro-dLys-Gly-NH2] |  | 0.2 |  |  |  |  | 0.005 | 30 |  | 1.5 | 0.5 |  | > 10000 | 0.15 |  |  |  |  |  |
| NCCCCCCCCCCCC(=O)NCCCC[C@H](NC(=O)[C@@H]1CCCN1C(=O)[C@@H]1CSSCCC(=O)N[C@@H](Cc2ccc(O)cc2)C(=O)N[C@@H](Cc2ccccc2)C(=O)N[C@@H](CCCC(N)=O)C(=O)N[C@@H](CC(N)=O)C(=O)N1)C(=O)NCC(N)=O [SEQ ID NO. 19, Mpa-Tyr-Phe-Hgn-Asn-Cys-Pro-Lys(12-aminododecanoic acid)-Gly-NH2] |  | 2.5 |  |  |  |  | 0.014 | 649 (Dose too |  |  |  |  | > 10000 | 9.08 | None Observed | >9.08 | >9.08 | None Observed |  |
| NCC(=O)NCC(=O)NCC(=O)NCC(=O)NCC(=O)NCC(=O)NCCCC[C@H](NC(=O)[C@@H]1CCCN1C(=O)[C@@H]1CSSCCC(=O)N[C@@H](Cc2ccc(O)cc2)C(=O)N[C@@H](Cc2ccccc2)C(=O)N[C@@H](CCC(N)=O)C(=O)N[C@@H](CC(N)=O)C(=O)N1)C(=O)NCC(N)=O [SEQ ID NO. 20, Mpa-Tyr-Phe-Gln-Asn-Cys-Pro-Lys(X)a-Gly-NH2; (X)a = (Gly)6] |  |  | (>6.76)* hrs | (>5.46)* hrs | (6.11 ± 0.09) hrs | None observed | 0.0015 | 100 | 0.15 | 5.0 | 0.5 | 7.56 |  |  |  |  |  |  | 60.9 |
